In patent publication US20130040935A1, “CYCLIC KETO-ENOLS FOR THERAPY” (BAYER INTELLECTUAL PROPERTY GMBH, priority 2010, published 2013):
Where two headings read alike, the source gives them in different places.

How the values were obtained:
[1] = target: T1, human ACC1 (acetyl-coenzyme A carboxylase alpha transcript variant 1) (Homo sapiens, UniProt Q13085); experiment: Human ACC1 enzyme assay, Assay B1 (ADP-Glo); type: biochemical
T1 construct: FLAG (C); made in house; host or cells: baculovirus-infected insect cells (Hi5)

[2] = target: human ACC2 (acetyl-coenzyme A carboxylase 2) (Homo sapiens, UniProt O00763); experiment: Human ACC2 enzyme assay, Assay B2 (ADP-Glo);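 note: human ACC2 activity read as ADP product, detected by luciferase glow luminescence after residual ATP removal, enzyme near 2 ng/µl in linear range, detection steps at 22 °C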
recombinant human ACC1 = recombinant human ACC1 (Homo sapiens, UniProt Q13085); experiment: Human ACC1 enzyme assay, Assay A1 (HTRF ADP immunoassay);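 note: ADP generated by the enzyme quantified via competitive time-resolved FRET, read as europium cryptate to d2 energy transfer after 1 h at 22 °C with labelled ADP tracer and anti-ADP antibody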
[3] = target: acetyl-CoA carboxylase 2 (ACC2) (Homo sapiens, UniProt O00763); experiment: Human ACC2 enzyme assay, Assay A2 (HTRF ADP immunoassay);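 note: ADP generated by ACC2 quantified via competitive time-resolved FRET between europium cryptate anti-ADP antibody and d2-tagged ADP, enzyme kept in linear range near 0.6 ng/µl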
Experimental: The inhibitory activity of the substances of this invention with regard to acetyl-CoA carboxylase 2 (ACC2) was measured using the ACC2 assay described in the paragraphs below. The basic principle of the assay is the measurement of adenosine diphosphate (ADP), which is formed as a by-product, by means of an HTRF®-based competitive immunoassay (HTRF=Homogeneous Time Resolved Fluorescence).
The amount of complex of d2-labelled ADP and europium cryptate-labelled anti-ADP antibody was then determined by measuring the resonance energy transfer of europium cryptate to d2.

MCF7 = experiment: Cell proliferation assay (CellTiter-Glo, 96 h), MCF7; type: cell-based; conditions: Homo sapiens
Outline: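 Cells seeded 2000-5000/well, treated next day and incubated 96 h at 37° C; viability by CellTiter-Glo luminescence. t=0 luminescence subtracted from 96 h values for treated and untreated wells; percent growth inhibition derived relative to controls.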

[4] = MCF7, Table 7, 96-hour incubation
[5] = Assay B1, read-out: ACC 1 (=B1) IC50

Chain of acetyl-CoA carboxylase 2 (ACC2) (O00763 39-2458 limits assumed): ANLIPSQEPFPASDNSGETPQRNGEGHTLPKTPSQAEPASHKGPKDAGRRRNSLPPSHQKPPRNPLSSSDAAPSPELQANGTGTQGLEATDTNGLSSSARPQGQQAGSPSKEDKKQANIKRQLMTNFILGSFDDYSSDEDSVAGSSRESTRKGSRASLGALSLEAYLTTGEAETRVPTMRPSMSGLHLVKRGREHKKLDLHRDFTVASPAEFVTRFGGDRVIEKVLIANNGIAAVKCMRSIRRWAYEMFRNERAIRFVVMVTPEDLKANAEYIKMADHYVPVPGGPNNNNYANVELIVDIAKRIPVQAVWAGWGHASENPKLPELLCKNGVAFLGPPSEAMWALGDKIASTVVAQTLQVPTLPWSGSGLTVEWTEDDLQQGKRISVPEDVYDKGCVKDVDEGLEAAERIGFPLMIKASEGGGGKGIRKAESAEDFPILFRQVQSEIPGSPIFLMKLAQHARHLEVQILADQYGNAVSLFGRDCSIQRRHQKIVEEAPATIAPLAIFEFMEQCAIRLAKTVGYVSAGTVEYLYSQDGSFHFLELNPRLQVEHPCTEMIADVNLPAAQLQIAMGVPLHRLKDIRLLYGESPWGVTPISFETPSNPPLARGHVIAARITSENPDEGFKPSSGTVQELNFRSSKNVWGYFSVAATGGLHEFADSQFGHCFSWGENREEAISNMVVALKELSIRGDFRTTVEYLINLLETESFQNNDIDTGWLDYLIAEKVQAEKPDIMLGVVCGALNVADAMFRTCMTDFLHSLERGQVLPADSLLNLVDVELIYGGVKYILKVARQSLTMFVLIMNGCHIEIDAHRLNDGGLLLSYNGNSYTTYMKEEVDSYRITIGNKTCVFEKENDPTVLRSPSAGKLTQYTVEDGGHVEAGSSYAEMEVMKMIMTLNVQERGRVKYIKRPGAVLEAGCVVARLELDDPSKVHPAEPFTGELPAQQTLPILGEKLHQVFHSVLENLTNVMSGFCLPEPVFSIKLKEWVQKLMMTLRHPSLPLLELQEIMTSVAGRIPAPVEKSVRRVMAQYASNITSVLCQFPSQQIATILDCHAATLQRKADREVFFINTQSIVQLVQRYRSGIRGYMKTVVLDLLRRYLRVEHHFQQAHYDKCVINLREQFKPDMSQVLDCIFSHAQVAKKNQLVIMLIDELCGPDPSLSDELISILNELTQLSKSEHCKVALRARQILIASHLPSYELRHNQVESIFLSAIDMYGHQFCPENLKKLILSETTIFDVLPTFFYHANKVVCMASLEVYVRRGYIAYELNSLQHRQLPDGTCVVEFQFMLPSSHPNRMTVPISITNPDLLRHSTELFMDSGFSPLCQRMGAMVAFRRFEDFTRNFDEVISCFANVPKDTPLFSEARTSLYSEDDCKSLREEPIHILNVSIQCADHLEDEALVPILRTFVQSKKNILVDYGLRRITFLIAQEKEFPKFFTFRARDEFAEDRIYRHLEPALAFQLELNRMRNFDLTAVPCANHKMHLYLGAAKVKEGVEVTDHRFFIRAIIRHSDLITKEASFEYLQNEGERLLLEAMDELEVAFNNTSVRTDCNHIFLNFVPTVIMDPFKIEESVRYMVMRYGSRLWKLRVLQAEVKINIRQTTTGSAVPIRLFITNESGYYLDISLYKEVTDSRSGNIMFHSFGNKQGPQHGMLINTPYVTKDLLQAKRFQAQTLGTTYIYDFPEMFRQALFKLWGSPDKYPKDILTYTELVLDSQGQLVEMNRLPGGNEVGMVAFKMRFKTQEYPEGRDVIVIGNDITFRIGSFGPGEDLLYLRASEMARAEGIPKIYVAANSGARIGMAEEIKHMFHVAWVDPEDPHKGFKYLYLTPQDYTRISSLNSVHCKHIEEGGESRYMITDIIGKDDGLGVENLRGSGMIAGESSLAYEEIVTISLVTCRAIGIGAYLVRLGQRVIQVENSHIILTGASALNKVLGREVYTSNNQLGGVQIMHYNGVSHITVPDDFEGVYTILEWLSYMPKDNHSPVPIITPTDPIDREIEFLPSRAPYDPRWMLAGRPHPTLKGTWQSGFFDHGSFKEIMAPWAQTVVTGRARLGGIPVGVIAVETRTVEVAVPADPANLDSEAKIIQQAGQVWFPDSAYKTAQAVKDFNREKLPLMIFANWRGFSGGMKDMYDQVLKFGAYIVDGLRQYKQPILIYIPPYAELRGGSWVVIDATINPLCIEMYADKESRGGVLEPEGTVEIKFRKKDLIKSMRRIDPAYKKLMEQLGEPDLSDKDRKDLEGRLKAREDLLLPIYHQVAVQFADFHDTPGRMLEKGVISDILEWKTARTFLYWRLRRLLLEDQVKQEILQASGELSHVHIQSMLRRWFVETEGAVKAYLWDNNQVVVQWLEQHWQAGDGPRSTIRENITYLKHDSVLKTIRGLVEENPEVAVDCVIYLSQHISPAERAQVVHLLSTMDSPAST
Chain of human ACC2 (acetyl-coenzyme A carboxylase 2) (O00763 27-2458 limits assumed): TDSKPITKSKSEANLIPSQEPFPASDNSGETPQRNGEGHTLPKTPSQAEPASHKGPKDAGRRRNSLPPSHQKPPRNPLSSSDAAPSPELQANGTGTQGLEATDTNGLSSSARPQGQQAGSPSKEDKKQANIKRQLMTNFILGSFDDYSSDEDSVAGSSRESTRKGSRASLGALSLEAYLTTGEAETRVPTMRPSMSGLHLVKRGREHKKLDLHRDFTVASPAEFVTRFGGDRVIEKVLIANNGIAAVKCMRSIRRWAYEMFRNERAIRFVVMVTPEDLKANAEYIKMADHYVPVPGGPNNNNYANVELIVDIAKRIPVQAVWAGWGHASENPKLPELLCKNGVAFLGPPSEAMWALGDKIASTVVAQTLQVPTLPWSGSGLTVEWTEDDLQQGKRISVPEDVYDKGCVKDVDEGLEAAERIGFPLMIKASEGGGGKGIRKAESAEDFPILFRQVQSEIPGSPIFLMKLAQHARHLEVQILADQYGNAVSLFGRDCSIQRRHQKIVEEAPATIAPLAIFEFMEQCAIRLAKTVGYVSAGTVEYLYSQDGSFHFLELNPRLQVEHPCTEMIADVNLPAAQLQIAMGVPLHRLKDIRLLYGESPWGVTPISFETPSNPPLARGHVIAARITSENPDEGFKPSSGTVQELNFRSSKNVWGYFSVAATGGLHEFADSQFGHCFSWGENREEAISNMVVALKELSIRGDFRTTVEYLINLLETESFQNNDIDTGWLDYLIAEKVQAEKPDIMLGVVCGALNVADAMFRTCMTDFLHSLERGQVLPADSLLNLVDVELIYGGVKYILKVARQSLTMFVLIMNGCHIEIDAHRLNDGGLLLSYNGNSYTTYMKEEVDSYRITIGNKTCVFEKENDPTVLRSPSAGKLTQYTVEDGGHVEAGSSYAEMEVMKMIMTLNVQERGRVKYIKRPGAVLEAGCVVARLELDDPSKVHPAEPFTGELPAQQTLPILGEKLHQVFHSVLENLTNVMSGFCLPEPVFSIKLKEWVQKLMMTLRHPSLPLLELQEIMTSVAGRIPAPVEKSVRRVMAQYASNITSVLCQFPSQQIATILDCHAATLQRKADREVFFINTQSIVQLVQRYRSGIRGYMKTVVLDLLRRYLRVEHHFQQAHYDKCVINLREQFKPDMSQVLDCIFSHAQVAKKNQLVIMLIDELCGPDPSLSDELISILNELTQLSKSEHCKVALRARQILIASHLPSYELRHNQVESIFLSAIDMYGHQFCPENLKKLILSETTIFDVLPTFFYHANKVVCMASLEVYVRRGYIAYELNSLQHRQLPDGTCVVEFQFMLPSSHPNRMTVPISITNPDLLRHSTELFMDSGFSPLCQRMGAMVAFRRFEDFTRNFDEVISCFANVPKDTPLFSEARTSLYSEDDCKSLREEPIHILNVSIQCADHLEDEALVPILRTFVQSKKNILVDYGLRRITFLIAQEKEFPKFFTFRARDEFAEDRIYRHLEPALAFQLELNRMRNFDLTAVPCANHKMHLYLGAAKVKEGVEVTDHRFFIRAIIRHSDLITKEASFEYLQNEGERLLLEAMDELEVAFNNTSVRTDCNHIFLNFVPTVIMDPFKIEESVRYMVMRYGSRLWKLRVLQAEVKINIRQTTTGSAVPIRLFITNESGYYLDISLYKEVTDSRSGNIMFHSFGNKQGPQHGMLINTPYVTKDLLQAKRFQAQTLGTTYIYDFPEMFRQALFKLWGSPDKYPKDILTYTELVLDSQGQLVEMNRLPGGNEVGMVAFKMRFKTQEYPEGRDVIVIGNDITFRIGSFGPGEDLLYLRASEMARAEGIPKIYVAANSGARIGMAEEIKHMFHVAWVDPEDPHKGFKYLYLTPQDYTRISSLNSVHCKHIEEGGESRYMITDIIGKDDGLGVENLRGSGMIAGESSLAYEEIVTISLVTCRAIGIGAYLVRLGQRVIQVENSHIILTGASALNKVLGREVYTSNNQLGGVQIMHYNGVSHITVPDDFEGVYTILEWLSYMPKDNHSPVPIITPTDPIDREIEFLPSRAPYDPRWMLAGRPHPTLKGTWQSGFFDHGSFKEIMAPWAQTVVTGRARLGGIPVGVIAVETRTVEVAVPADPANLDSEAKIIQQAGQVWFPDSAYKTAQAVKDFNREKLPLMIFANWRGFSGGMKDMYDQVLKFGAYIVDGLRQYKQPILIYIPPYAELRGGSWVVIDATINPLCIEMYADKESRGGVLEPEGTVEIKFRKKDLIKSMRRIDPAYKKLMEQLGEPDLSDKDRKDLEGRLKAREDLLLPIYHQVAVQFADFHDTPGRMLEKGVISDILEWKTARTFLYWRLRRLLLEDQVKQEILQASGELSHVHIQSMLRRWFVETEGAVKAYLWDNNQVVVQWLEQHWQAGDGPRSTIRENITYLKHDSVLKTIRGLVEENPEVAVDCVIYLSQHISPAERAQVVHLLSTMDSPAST

Row | IC50 [1, 5] | IC50 ([1]; Assay B1, ADP-Glo, read-out: ACC 1 (=B1) IC50) | IC50 (MCF7; MCF7 cells) | SMILES | IC50 [1] | IC50 [2] | IC50 (recombinant human ACC1) | IC50 [3] | IC50 (MCF7; [4])
1 |  |  |  | CO[C@H]1CC[C@]2(CC1)NC(=O)C(c1cc(-c3ccc(Cl)cc3)c(Cl)cc1C)=C2O [1-109, (5s,8s)-3-(4′,6-Dichloro-4-methylbiphenyl-3-yl)-4-hydroxy-8-methoxy-1-azaspiro[4.5]dec-3-en-2-one] | 293 nM | 394 nM | 800 nM | 103 nM | 37 nM
2 |  |  |  | Cc1cc(F)c(-c2ccc(Cl)cc2)cc1C1=C(O)C2(CCC(C(F)(F)F)CC2)NC1=O (mixture of isomers) [1-100, 3-(4′-Chloro-6-fluoro-4-methylbiphenyl-3-yl)-4-hydroxy-8-(trifluoromethyl)-1-azaspiro[4.5]dec-3-en-2-one] | 96 nM | 2470 nM | 91 nM | 988 nM | 127 nM
3 | 124 nM |  |  | Cc1ccc(-c2ccc(Cl)cc2)cc1C1=C(O)[C@]2(CC[C@](O)(C(F)(F)F)CC2)NC1=O [1-122, (5r,8r)-3-(4′-Chloro-4-methylbiphenyl-3-yl)-4,8-dihydroxy-8-(trifluoromethyl)-1-azaspiro[4.5]dec-3-en-2-one] |  | 6590 nM | 98 nM | 5420 nM | 288 nM
4 |  |  |  | CO[C@H]1CC[C@]2(CC1)NC(=O)C(c1cc(-c3ccc(F)c(F)c3)ccc1Cl)=C2O [1-104, (5s,8s)-3-(4 Chloro-3′,4′-difluorobiphenyl-3-yl)-4-hydroxy-8-methoxy-1-azaspiro[4.5]dec-3-en-2-one] | 270 nM | > 20000 nM | 329 nM | 17900 nM | 455 nM
5 |  | 402 nM | 302 nM | CCCOC1CCC2(CC1)OC(=O)C(c1cc(-c3ccc(Cl)cc3)c(C)cc1C)=C2O (stereo not drawn) [2-47, 3-(4′-chloro-4,6-dimethylbiphenyl-3-yl)-4-hydroxy-8-propoxy-1-oxaspiro[4.5]dec-3-en-2-one] |  | 389 nM | 592 nM | 453 nM | 
6 | 113 nM |  |  | COCC[C@H]1CC[C@]2(CC1)NC(=O)C(c1cc(-c3ccc(Cl)c(F)c3)ccc1C)=C2O [1-114, (5s,8s)-3-(4′-Chloro-3′-fluoro-4-methylbiphenyl-3-yl)-4-hydroxy-8-(2-methoxyethyl)-1-azaspiro[4.5]dec-3-en-2-one] |  | 1640 nM | 236 nM | 2210 nM | 43 nM
7 | 204 nM |  |  | Cc1ccc(-c2ccc(Cl)c(F)c2)c(C)c1C1=C(O)[C@]2(CC[C@](O)(C(F)(F)F)CC2)NC1=O [1-126, (5r,8r)-3-(4′-Chloro-3′-fluoro-2,4-dimethylbiphenyl-3-yl)-4,8-dihydroxy-8-(trifluoromethyl)-1-azaspiro[4.5]dec-3-en-2-one] |  | 12400 nM | 300 nM | 6370 nM | 594 nM
8 |  |  |  | Cc1ccc(-c2ccc(Cl)c(F)c2)c(C)c1C1=C(O)[C@]2(CC[C@H](C(F)(F)F)CC2)NC1=O [1-93, (5s,8s)-3-(4′-Chloro-3′-fluoro-2,4-dimethylbiphenyl-3-yl)-4-hydroxy-8-(trifluoromethyl)-1-azaspiro[4.5]dec-3-en-2-one] | 217 nM | 4010 nM | 301 nM | 876 nM | 78 nM
9 | 109 nM |  |  | O=C1N[C@]2(CC[C@@H](C(F)(F)F)CC2)C(O)=C1c1cc(-c2ccc(Cl)cc2)ccc1Cl [1-134, (5s,8s)-3-(4,4′-Dichlorobiphenyl-3-yl)-4-hydroxy-8 (trifluoromethyl)-1-azaspiro[4.5]dec-3-en-2-one] |  | 2850 nM | 299 nM | 1310 nM | 114 nM
10 | 80 nM |  |  | Cc1ccc(-c2ccc(Cl)c(F)c2)cc1C1=C(O)[C@]2(CC[C@H](C)CC2)NC1=O [1-110, (5s,8s)-3-(4′-Chloro-3′-fluoro-4-methylbiphenyl-3-yl)-4-hydroxy-8-methyl-1-azaspiro[4.5]dec-3-en-2-one] |  | 488 nM | 194 nM | 640 nM | 45 nM
11 | 217 nM |  |  | Cc1ccc(-c2ccc(Cl)cc2)c(C)c1C1=C(O)[C@]2(CC[C@](O)(C(F)(F)F)CC2)NC1=O [1-125, (5r,8r)-3-(4′-Chloro-2,4-dimethylbiphenyl-3-yl)-4,8-dihydroxy-8-(trifluoromethyl)-1-azaspiro[4.5]dec-3-en-2-one] |  | 6770 nM | 281 nM | 3990 nM | 322 nM
12 |  |  |  | CO[C@H]1CC[C@]2(CC1)NC(=O)C(c1cc(-c3ccc(Cl)cc3)cc(F)c1C)=C2O [1-106, (5s,8s)-3-(4′-Chloro 5 fluoro 4-methylbiphenyl-3-yl)-4-hydroxy-8-methoxy-1-azaspiro[4.5]dec-3-en-2-one] | 207 nM | 5850 nM | 439 nM | 4360 nM | 155 nM
13 |  |  |  | Cc1c(F)cc(-c2ccc(Cl)c(F)c2)cc1C1=C(O)[C@]2(CC[C@H](C(F)(F)F)CC2)NC1=O [1-102, (5s,8s)-3-(4′-Chloro-3′,5-difluoro-4-methylbiphenyl-3-yl)-4-hydroxy-8-(trifluoromethyl)-1-azaspiro[4.5]dec-3-en-2-one] | 243 nM | 3820 nM | 214 nM | 2950 nM | 79 nM
14 |  |  |  | O=C1N[C@]2(CC[C@@H](C(F)(F)F)CC2)C(O)=C1c1cc(-c2ccc(F)c(F)c2)ccc1Cl [1-99, (5s,8s)-3-(4 Chloro-3′,4′-difluorobiphenyl-3-yl)-4-hydroxy-8-(trifluoromethyl)-1-azaspiro[4.5]dec-3-en-2-one] | 207 nM | 11300 nM | 327 nM | 6670 nM | 120 nM
15 |  |  |  | CO[C@H]1CC[C@]2(CC1)NC(=O)C(c1cc(-c3ccc(Cl)c(F)c3)cc(F)c1C)=C2O [1-105, (5s,8s)-3-(4′-Chloro-3′,5-difluoro-4-methylbiphenyl-3-yl)-4-hydroxy-8-methoxy-1-azaspiro[4.5]dec-3-en-2-one] | 165 nM | 8940 nM | 360 nM | 5560 nM | 106 nM
16 |  |  |  | CO[C@H]1CC[C@]2(CC1)NC(=O)C(c1cc(-c3ccc(F)c(F)c3)ccc1C)=C2O [1-136, (5s,8s)-3-(3′,4′-Difluoro-4-methylbiphenyl-3-yl)-4-hydroxy-8-methoxy-1-azaspiro[4.5]dec-3-en-2-one] | 233 nM | 12500 nM | 239 nM | 6490 nM | 156 nM
17 | 115 nM |  |  | CCO[C@H]1CC[C@]2(CC1)NC(=O)C(c1cc(-c3ccc(Cl)cc3)ccc1C)=C2O [1-146, (5s,8s)-3-(4′-Chloro-4 methylbiphenyl-3-yl)-8-ethoxy-4-hydroxy-1-azaspiro[4.5]dec-3-en-2-one] |  | 679 nM | 197 nM | 455 nM | 47 nM
18 |  |  |  | CO[C@H]1CC[C@]2(CC1)NC(=O)C(c1cc(-c3ccc(Cl)c(F)c3)ccc1Cl)=C2O [1-103, (5s,8s)-3-(4,4′-Dichloro-3′-fluorobiphenyl-3-yl)-4-hydroxy-8-methoxy-1-azaspiro[4.5]dec-3-en-2-one] | 102 nM | 4260 nM | 151 nM | 1180 nM | 119 nM
19 |  |  |  | Cc1ccc(-c2ccc(F)c(F)c2)c(C)c1C1=C(O)[C@]2(CC[C@H](C(F)(F)F)CC2)NC1=O [1-101, (5s,8s)-3-(3′,4′-Difluoro-2,4-dimethylbiphenyl-3-yl)-4-hydroxy-8-(trifluoromethyl)-1-azaspiro[4.5]dec-3-en-2-one] | 650 nM | 10500 nM | 460 nM | 6070 nM | 272 nM
20 | 110 nM |  |  | Cc1ccc(-c2ccc(Cl)cc2)cc1C1=C(O)[C@]2(CC[C@H](C(F)(F)F)CC2)NC1=O [1-119, (5s,8s)-3-(4′-Chloro-4 methylbiphenyl-3-yl)-4-hydroxy-8-(trifluoromethyl)-1-azaspiro[4.5]dec-3-en-2-one] |  | 1080 nM | 203 nM | 479 nM | 37 nM
21 |  |  |  | CC(C)[C@H]1CC[C@]2(CC1)NC(=O)C(c1cc(-c3ccc(Cl)cc3)ccc1Cl)=C2O [1-141, (5s,8s)-3-(4,4′-Dichlorobiphenyl-3-yl)-4-hydroxy-8-isopropyl-1-azaspiro[4.5]dec-3-en-2-one] | 161 nM | 1380 nM | 247 nM | 625 nM | 79 nM
22 | 108 nM |  |  | Cc1ccc(-c2ccc(Cl)c(F)c2)cc1C1=C(O)[C@]2(CC[C@](O)(C(F)(F)C(F)(F)F)CC2)NC1=O [1-130, (5r,8r)-3-(4′-Chloro-3′-fluoro-4-methylbiphenyl-3-yl)-4,8-dihydroxy-8-(pentafluoroethyl)-1-azaspiro[4.5]dec-3-en-2-one] |  | 5890 nM | 133 nM | 4400 nM | 61 nM
23 |  |  |  | O=C1N[C@]2(CCC[C@H](C(F)(F)F)C2)C(O)=C1c1cc(-c2ccc(Cl)cc2)ccc1Cl [1-137, (5S,7S)-3-(4,4′-Dichlorobiphenyl-3-yl)-4-hydroxy-7-(trifluoromethyl)-1-azaspiro[4.5]dec-3-en-2-one] | 168 nM | 7490 nM | 307 nM | 7750 nM | 439 nM

Row | SMILES | IC50 [1, 5] | IC50 ([1]; Assay B1, ADP-Glo, read-out: ACC 1 (=B1) IC50) | IC50 (MCF7; MCF7 cells) | IC50 [1] | IC50 [2] | IC50 (recombinant human ACC1) | IC50 [3] | IC50 (MCF7; [4])
24 | COC[C@H]1CC[C@]2(CC1)NC(=O)C(c1cc(-c3ccc(Cl)cc3)ccc1C)=C2O [1-116, (5s,8s)-3-(4′-Chloro-4 methylbiphenyl-3-yl)-4-hydroxy-8-(methoxymethyl)-1-azaspiro[4.5]dec-3-en-2-one] | 92 nM |  |  |  | 591 nM | 232 nM | 280 nM | 31 nM
